Measurements published in patent US4007282A, “Lowering lipid and sugar levels in the blood with a bis(4-hydroxyphenyl)alkanoic acid or ester thereof” (Hoechst Aktiengesellschaft, priority 1972, dated 1977).
Read-outs that look alike come from different tables or passages of the source.

Tests used:
[1] = tested on: hypertriglyceridemia induced by carbohydrates in male rats; test: Action on the hypertriglyceridemia induced by carbohydrates (fructose) in male rats; format: in vivo; conditions: Rattus norvegicus, 72 h, 3-day oral pre-treatment, vs untreated control, read-out: Change in percentage of hypertriglyceridemia induced by carbohydrates
[2] = in vivo; conditions: mouse, po
[3] = tested on: dietetic-medicamentous hyperlipemia of male rats; test: Action on the dietetic-medicamentous hyperlipemia of male rats; format: in vivo; conditions: Rattus norvegicus, po, 192 h, 100 mg/kg/day p.o., 8 days, male rats on cholesterol diet
Text: All the animals were fed with a diet food containing 2% of cholesterol, 2% of sodium cholate, 0.3% of methyl-thiouracil, 20% of coco fat and 44% of cane sugar. The serum lipid concentration of the animals treated with the compounds of the invention was compared to that of an untreated control group on the same diet, which diet causes the serum cholesteral concentration to rise within 1 week to about 10 times the initial value, that of the serum triglycerides to 3 times and that of the phospho-lipids in the serum to 4 times the initial value. The lipid phosphorus was determined according to the method of Messrs. Boehringer Mannheim W. Germany. At the same time as the diet was offered, the compounds of the invention were administered once a day to groups of rats, each containing 10 animals, over a period of 8 days by means of an esophageal sound. The change in percentage in the serum lipid concentration as compared to the control group (diet without active substance) is indicated in Table 2.

[4] = tested on: normolipemic rats; test: Reduction of serum lipid values in normolipemic rats (8 days oral); format: in vivo, rat; conditions: 8 doses, male rats; for serum cholesterol, change in percentage (A: referred to the initial value) / serum triglyceride, change in percentage (A: referred to the initial value): column A; for serum cholesterol, change in percentage (B: referred to the untreated control group) / serum triglyceride, change in percentage (B: referred to the untreated control group): column B
Description: 1. Male rats having a normal serum lipid content were treated for eight days with different daily doses mentioned in Table 1. The values given in that Table stand for a change in the serum concentrations of certain lipid classes. The doses administered per os by means of an esophageal sound were 100, 30 and 10 mg/kg/day. Generally, prior to and after the treatment, blood samples were taken and the concentration of cholesterol in the serum was determined according to the method of Lauber and Richterich and that of triglycerides according to the method of Eggstein and Kreutz. In the examples of the following Table 1, the changes in the serum lipid values due to the treatment with the substances of the invention are defined as follows:
a. The changes in percent in the final value of the treated group, referred to the initial value of the treated group, the initial value being 100 percent, and
b. the change in the final value of the treated group, referred to the final value of an accompanying untreated control group, the untreated control group's value being defined as 100 percent. Thus, the value given in columns A is the change in percentage referred to the initial value, whereas the value given in columns B is the change in percentage of the treated group, referred to the untreated control group.

[5] = tested on: rats that had been fed fructose doses; test: Hypoglycemic activity: lowering of the blood sugar level in rats fed fructose doses; format: in vivo, rat; conditions: 100 mg/kg once a day over 3 days, 24 hours after last administration, vs placebo control group
Description: The hypoglycemic activity of some bis(4-hydroxy-phenyl) alkanoic acid derivatives of formulae I and II could be established by administering once a day, over 3 days, 100 mg of the active compound per kg of test animal to rats that had been fed fructose doses and by taking blood samples 24 hours after the last administration in order to determine the blood sugar level by means of an autoanalyzer.
The lowering of the blood sugar content indicated in following Table 4 refers to a control group treated with placebos (blank doses).

[6] = tested on: mice; conditions: Table 3
[7] = read-out: serum cholesterol, change in percentage as compared to the control group
[8] = read-out: serum lipid phosphorus, change in percentage as compared to the control group
[9] = read-out: serum triglyceride, change in percentage as compared to the control group

Compound	change in vivo at 30 mg/kg [1]	change in vivo at 100 mg/kg [1]	LD50 [2]	change in vivo at 100 mg/kg [3, 7]	change in vivo at 100 mg/kg [3, 8]	change in vivo at 100 mg/kg [3, 9]	serum cholesterol, change in percentage (A: referred to the initial value) ([4]; 10 mg/kg/day p.o.)	serum cholesterol, change in percentage (B: referred to the untreated control group) ([4]; 10 mg/kg/day p.o.)	serum triglyceride, change in percentage (B: referred to the untreated control group) ([4]; 10 mg/kg/day p.o.)	serum cholesterol, change in percentage (A: referred to the initial value) ([4]; 30 mg/kg/day p.o.)	serum triglyceride, change in percentage (A: referred to the initial value) ([4]; 30 mg/kg/day p.o.)	serum cholesterol, change in percentage (B: referred to the untreated control group) ([4]; 30 mg/kg/day p.o.)	serum triglyceride, change in percentage (B: referred to the untreated control group) ([4]; 30 mg/kg/day p.o.)	serum cholesterol, change in percentage (A: referred to the initial value) ([4]; 100 mg/kg/day p.o.)	serum triglyceride, change in percentage (A: referred to the initial value) ([4]; 100 mg/kg/day p.o.)	serum cholesterol, change in percentage (B: referred to the untreated control group) ([4]; 100 mg/kg/day p.o.)	serum triglyceride, change in percentage (B: referred to the untreated control group) ([4]; 100 mg/kg/day p.o.)	lowering of the blood sugar level in per cent [5]	LD50 mice p.o. [6]
CC(C)(C)c1cc(C(C(=O)O)c2cc(C(C)(C)C)c(O)c(C(C)(C)C)c2)cc(C(C)(C)C)c1O [Example 3, Bis(4'-hydroxy-3',5'-di-tert.butyl-phenyl)ethanoic acid]	-36%	-37%	6000 to 8000 mg/kg	-23%	-26%	-44%	-24%	-21%	-29%	-32%	-39%	-22%	-46%	-61%	-70%	-52%	-60%	-15 per cent	6000 to 8000 mg/kg
CCCCOC(=O)CC(C)(c1ccc(O)c(C(C)(C)C)c1)c1ccc(O)c(C(C)(C)C)c1 [Example 7, 3,3-bis(4'-hydroxy-3'-tert.-butyl-phenyl)butanoic acid butyl ester]	-19%	-35%	> 8000 mg/kg	-30%	-30%	-34%	–	–	–	–	–	–	–	-29%	-53%	-26%	-23%	-24 per cent	> 8000 mg/kg
